Records with an inconclusive call do not appear. Calls of active or inactive are those of the source.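 Rule for the calls: active = valid dose-response fit whose half-maximal growth-inhibiting concentration is at or below a set limit above the top tested dose; inconclusive = flat fit with effect between 30 and 70%, or poor fit; inactive = half-maximal concentration above a set limit.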

One experiment is described as follows: antibacterial activity against Clostridioides difficile – 10-point retest, dose response (AID 1259246). As to conditions: Clostridioides difficile clinical isolate growth, OD600, 24 h; at 60 µM (top of the series).
Regarding `C[C@@H]1CN([C@@H](C)CO)S(=O)(=O)c2ccc(C#Cc3ccccc3F)cc2O[C@@H]1CN(C)CC1CCOCC1`, the activity change, negative = inhibition was 3.46% (inactive).
On to `CC(C)CC#Cc1ccc2c(c1)O[C@@H](CN(C)Cc1ccc(C(=O)O)cc1)[C@H](C)CN([C@@H](C)CO)S2(=O)=O`, for which the activity change, negative = inhibition was 2.34% (inactive).
The same measure, in the same setting: then `CNC[C@@H]1Oc2ccc(N)cc2CC(=O)N([C@H](C)CO)C[C@H]1C`, with 0.918% (inactive).
Still for that read-out and setting: the result for `C[C@@H]1CN([C@H](C)CO)S(=O)(=O)c2ccc(/C=C/c3ccccc3)cc2O[C@H]1CN(C)C` reads 5.46% (inactive).

Staying with this experiment, now noted: Clostridioides difficile clinical isolate growth, OD600, 24 h; at 68 µM (top of the series).
In the case of `O=C(C[C@H]1C[C@@H]2c3cc(NC(=O)C4CCC4)ccc3O[C@@H]2[C@@H](CO)O1)NCCN1CCCCC1`, the activity change, negative = inhibition is -0.905% (inactive).

The experiment is the same for the next values; noted with them: Clostridioides difficile clinical isolate growth, OD600, 24 h; at 120 µM (top of the series).
Take `COc1ccc(C(=O)Nc2ccc3c(c2)C(=O)N(C)C[C@H](OC)[C@H](C)CN[C@@H](C)CO3)cc1`: the activity change, negative = inhibition was 8.1% (inactive).
For `CO[C@@H]1CN(C)C(=O)c2ccc(NC(=O)c3nc4ccccc4s3)cc2OC[C@@H](C)N(Cc2ccncc2)C[C@H]1C`, the activity change, negative = inhibition is 28.6% (inactive).
Still for that read-out and setting: then `C[C@H](CO)N1C[C@H](C)[C@H](CN(C)Cc2ccc(-c3ccccc3)cc2)Oc2c(NC(=O)Nc3ccc4c(c3)OCO4)cccc2C1=O`, with 24.3% (inactive); and `CO[C@H]1CN(C)C(=O)c2cc(NC(=O)c3nc4ccccc4s3)ccc2OC[C@@H](C)N(Cc2ccncc2)C[C@@H]1C`, with 5.15% (inactive); and `CC(C)C#Cc1ccc2c(c1)O[C@H](CN(C)CC1CCOCC1)[C@H](C)CN([C@@H](C)CO)S2(=O)=O`, with 4.6% (inactive).
For the compound `C[C@@H]1CN([C@H](C)CO)C(=O)c2cccc(NC(=O)Nc3ccc(C(F)(F)F)cc3)c2O[C@H]1CN(C)Cc1ccc(-c2ccccc2)cc1`, the activity change, negative = inhibition is 8.44% (inactive).
On the same count and under the same terms, the result for `C[C@@H]1CN([C@@H](C)CO)C(=O)Cc2cc(NC(=O)CCCN(C)C)ccc2O[C@H]1CN(C)Cc1ccncc1` reads -4.05% (inactive); that for `CNC[C@@H]1Oc2cc(Br)ccc2S(=O)(=O)N([C@H](C)CO)C[C@H]1C`, 2.27% (inactive); that for `C[C@@H]1CCCCO[C@H](CN(C)S(=O)(=O)c2ccc(F)cc2)[C@H](C)CN([C@@H](C)CO)C(=O)c2cc(NC(=O)Nc3cccc4ccccc34)ccc2O1`, 22.9% (inactive).
Turning to `C[C@H](CO)N1C[C@H](C)[C@@H](CN(C)Cc2ccc(-c3ccccc3)cc2)Oc2c(NC(=O)Nc3ccc4c(c3)OCO4)cccc2C1=O`, the activity change, negative = inhibition is 2.74% (inactive).
Still for that read-out and setting: then `O=C(C[C@@H]1C[C@@H]2c3cc(NC(=O)C4CCC4)ccc3O[C@@H]2[C@H](CO)O1)NCc1ccc(Cl)cc1`, with -2.36% (inactive).
Same read-out and setting: then `Cc1noc(C)c1NC(=O)Nc1cccc2c1O[C@H](CN(C)Cc1ccc(Cl)c(Cl)c1)[C@H](C)CN([C@@H](C)CO)C2=O`, with 28.7% (inactive); and `COc1ccc(NC(=O)Nc2cccc3c2O[C@H](CN(C)Cc2ccc(Oc4ccccc4)cc2)[C@@H](C)CN([C@@H](C)CO)C3=O)cc1`, with 19.2% (inactive); and `C[C@@H]1CN([C@@H](C)CO)S(=O)(=O)c2ccc(Br)cc2O[C@H]1CN(C)Cc1cccnc1`, with 2.31% (inactive).
On to `C[C@@H]1CN([C@H](C)CO)S(=O)(=O)c2ccc(C#CC3CCCC3)cc2O[C@H]1CN(C)C`, for which the activity change, negative = inhibition is 4.79% (inactive).
Regarding `C[C@H](CO)N1C[C@H](C)[C@@H](CN(C)Cc2ccc3c(c2)OCO3)Oc2c(NC(=O)Nc3ccc(C(F)(F)F)cc3)cccc2C1=O`, the activity change, negative = inhibition was 28.9% (inactive).
Still for that read-out and setting: the result for `CC(C)C#Cc1ccc2c(c1)O[C@@H](CN(C)Cc1cccnc1)[C@H](C)CN([C@H](C)CO)S2(=O)=O` reads 27.7% (inactive); that for `C[C@@H]1CN([C@@H](C)CO)S(=O)(=O)c2ccc(C#CC3CCCCC3)cc2O[C@@H]1CN(C)Cc1cccnc1`, 13.1% (inactive).
For the compound `C[C@@H]1CCCCO[C@@H](CN(C)S(=O)(=O)c2ccc(F)cc2)[C@@H](C)CN([C@@H](C)CO)C(=O)c2cc(NC(=O)Nc3cccc4ccccc34)ccc2O1`, the activity change, negative = inhibition is 12.1% (inactive).
With `C[C@H](CO)N1C[C@H](C)[C@H](CN(C)Cc2cccnc2)Oc2cc(C#CC3CCCCC3)ccc2S1(=O)=O`, the activity change, negative = inhibition was 24.1% (inactive).
On to `C[C@@H]1CN([C@@H](C)CO)S(=O)(=O)c2ccc(C#CCN(C)C)cc2O[C@@H]1CN(C)Cc1ccc2c(c1)OCO2`, for which the activity change, negative = inhibition was 2.58% (inactive).
Take `CO[C@H]1CN(C)C(=O)c2ccc(NC(=O)c3nc4ccccc4s3)cc2OC[C@H](C)N(Cc2ccncc2)C[C@H]1C`: the activity change, negative = inhibition is 18.4% (inactive).
For `O=S(=O)(Cc1ccccc1)NCC[C@H]1CC[C@H](NS(=O)(=O)c2ccccc2)[C@H](CO)O1`, the activity change, negative = inhibition was -7.57% (inactive).
Same read-out and setting: the result for `C[C@H](CO)N1C[C@H](C)[C@@H](CN(C)Cc2ccc(Oc3ccccc3)cc2)Oc2c(NC(=O)Nc3ccccc3)cccc2C1=O` reads 23.8% (inactive); that for `COc1ccc(CN2C[C@H](C)[C@@H](OC)CN(C)C(=O)c3ccc(NC(=O)c4nc5ccccc5s4)cc3OC[C@@H]2C)cc1`, 9.23% (inactive); that for `CC(C)CC#Cc1ccc2c(c1)O[C@@H](CN(C)Cc1ccc3c(c1)OCO3)[C@@H](C)CN([C@@H](C)CO)S2(=O)=O`, 22.9% (inactive).
With `Cc1ccc(-c2ccc3c(c2)O[C@H](CN(C)Cc2ccncc2)[C@@H](C)CN([C@H](C)CO)S3(=O)=O)cc1`, the activity change, negative = inhibition was 22.9% (inactive).
Regarding `C[C@@H]1CN([C@H](C)CO)C(=O)Cc2cc(NC(=O)CCCN(C)C)ccc2O[C@H]1CN(C)Cc1ccc(Oc2ccccc2)cc1`, the activity change, negative = inhibition is 17.1% (inactive).
In the case of `Cc1ccc(S(=O)(=O)N[C@H]2CC[C@@H](CCNS(=O)(=O)Cc3ccccc3)O[C@@H]2CO)cc1`, the activity change, negative = inhibition was -4.91% (inactive).
On the same count and under the same terms, then `O=C(N[C@H]1CC[C@H](CCNS(=O)(=O)c2ccc(Cl)cc2)O[C@H]1CO)c1cnccn1`, with -7.94% (inactive); and `CO[C@@H]1CN(C)C(=O)c2cc(NC(=O)c3ccc(-c4ccccc4)cc3)ccc2OC[C@@H](C)NC[C@@H]1C`, with 6.12% (inactive).
Regarding `COc1ccc(NC(=O)Nc2cccc3c2O[C@@H](CN(C)Cc2ccc(Oc4ccccc4)cc2)[C@H](C)CN([C@H](C)CO)C3=O)cc1`, the activity change, negative = inhibition is 16.6% (inactive).
Consider `COc1ccc(NC(=O)Nc2cccc3c2O[C@H](CN(C)Cc2ccc(Oc4ccccc4)cc2)[C@H](C)CN([C@H](C)CO)C3=O)cc1`, for which the activity change, negative = inhibition was -0.653% (inactive).
For `C[C@@H]1CN([C@@H](C)CO)C(=O)Cc2cc(NS(=O)(=O)c3cccs3)ccc2O[C@@H]1CN(C)S(=O)(=O)c1ccc(Cl)cc1`, the activity change, negative = inhibition is 32.8% (inactive).
On the same count and under the same terms, then `C/C=C/c1ccc2c(c1)O[C@H](CN(C)Cc1ccc(F)cc1)[C@H](C)CN([C@H](C)CO)S2(=O)=O`, with 11.8% (inactive).
`CO[C@@H]1CN(C)C(=O)c2ccc(NC(=O)c3nc4ccccc4s3)cc2OC[C@H](C)N(Cc2ccncc2)C[C@H]1C`: the activity change, negative = inhibition is 7.34% (inactive).
On to `CO[C@@H]1CN(C)C(=O)c2cc(NC(=O)c3nc4ccccc4s3)ccc2OC[C@@H](C)N(Cc2ccncc2)C[C@@H]1C`, for which the activity change, negative = inhibition is 14.6% (inactive).

Still in this experiment, the particulars now being: Clostridioides difficile clinical isolate growth, OD600, 24 h; at 135 µM (top of the series).
Take `COc1ccccc1CNC(=O)C[C@H]1C[C@H]2c3cc(NC(=O)NC4CCCC4)ccc3O[C@H]2[C@@H](CO)O1`: the activity change, negative = inhibition was 4.17% (inactive).
Still for that read-out and setting: the result for `C[C@H]1CN([C@@H](C)CO)C(=O)Cc2cc(NC(=O)C3CC3)ccc2O[C@@H]1CN(C)Cc1ccc(-c2ccccc2)cc1` reads 17.1% (inactive).
Turning to `O=C(C[C@@H]1C[C@@H]2c3cc(NS(=O)(=O)c4ccc(F)cc4)ccc3O[C@@H]2[C@@H](CO)O1)NCc1ccc(-c2ccccc2)cc1`, the activity change, negative = inhibition is 18.3% (inactive).
With `O=C(C[C@H]1C[C@@H]2c3cc(NC(=O)Nc4ccc(F)cc4)ccc3O[C@@H]2[C@H](CO)O1)NC1CCCCC1`, the activity change, negative = inhibition is -1.13% (inactive).
For the compound `COc1ccc(CN(C)C[C@H]2Oc3ccc(NC(=O)C4CC4)cc3CC(=O)N([C@H](C)CO)C[C@H]2C)cc1`, the activity change, negative = inhibition is 0.998% (inactive).
In the case of `C[C@H](CO)N1C[C@H](C)[C@H](CN(C)Cc2ccc(Oc3ccccc3)cc2)Oc2ccc(NC(=O)CCCN(C)C)cc2CC1=O`, the activity change, negative = inhibition is 34.3% (inactive).
Take `CO[C@@H]1CN(C)C(=O)c2cc(NC(=O)c3nc4ccccc4s3)ccc2OC[C@H](C)N(Cc2ccncc2)C[C@H]1C`: the activity change, negative = inhibition is 7% (inactive).
As to `O=C(Nc1ccc(-c2ccccc2)cc1)[C@H]1[C@H](CO)[C@H]2Cn3c(cccc3=O)[C@H]2N1CC1CCCCC1`, the activity change, negative = inhibition was 32.6% (inactive).
Turning to `C[C@@H]1CN([C@@H](C)CO)C(=O)Cc2cc(NC(=O)C3CC3)ccc2O[C@H]1CN(C)Cc1ccc(Oc2ccccc2)cc1`, the activity change, negative = inhibition is 48% (inactive).
With `CO[C@@H]1CN(C)C(=O)c2cc(NC(=O)c3nc4ccccc4s3)ccc2OC[C@@H](C)N(Cc2ccncc2)C[C@H]1C`, the activity change, negative = inhibition is 14.2% (inactive).
Turning to `COc1ccc(S(=O)(=O)N(C)C[C@@H]2Oc3ccc(NC(=O)CCCN(C)C)cc3CC(=O)N([C@H](C)CO)C[C@H]2C)cc1`, the activity change, negative = inhibition is -7.92% (inactive).
Take `C[C@@H]1CN([C@@H](C)CO)C(=O)Cc2cc(NC(=O)Nc3ccccc3)ccc2O[C@@H]1CN(C)Cc1ccc(-c2ccccc2)cc1`: the activity change, negative = inhibition is 23.5% (inactive).

Source of the values: PubChem BioAssay AID1259246 (Broad Institute, 2017).
